Key:
[1] = target: T1, interactions of FLAG-tagged RBM45 or SNW1 with endogenous NR0B1 (Homo sapiens, UniProt P51843); assay: NR0B1 protein interactions in compound-treated cells (FLAG immunoprecipitation, immunoblot); assay type: cell-based; conditions: for blockade of interactions of FLAG-tagged RBM45 or SNW1 with endogenous NR0B1: KEAP1-null HEK293T cells and KEAP1-mutant NSCLC cells; for blockade of interactions of FLAG-tagged RBM45 or SNW1 with endogenous NR0B1 / inhibition of NR0B1 interaction with FLAG-RBM45 or FLAG-SNW1: 3 h; for inhibition of NR0B1 interaction with FLAG-RBM45 or FLAG-SNW1: KEAP1-null HEK293T cells
T1 construct: endogenous in cells; host or cells: KEAP1-null HEK293T cells stably expressing FLAG-RBM45 or FLAG-SNW1
T1 sequence (P51843 1-470): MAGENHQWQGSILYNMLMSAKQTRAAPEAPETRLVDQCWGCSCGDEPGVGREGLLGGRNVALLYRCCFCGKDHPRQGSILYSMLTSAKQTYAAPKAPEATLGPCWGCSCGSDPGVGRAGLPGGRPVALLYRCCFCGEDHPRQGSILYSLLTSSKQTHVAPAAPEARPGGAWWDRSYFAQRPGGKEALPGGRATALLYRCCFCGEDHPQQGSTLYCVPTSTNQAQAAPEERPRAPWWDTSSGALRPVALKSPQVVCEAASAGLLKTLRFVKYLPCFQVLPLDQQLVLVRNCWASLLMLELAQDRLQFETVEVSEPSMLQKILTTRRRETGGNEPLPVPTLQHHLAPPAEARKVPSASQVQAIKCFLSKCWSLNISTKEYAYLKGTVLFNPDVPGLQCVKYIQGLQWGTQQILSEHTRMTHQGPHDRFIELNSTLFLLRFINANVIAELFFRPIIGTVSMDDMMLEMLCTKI
Method: Confluent 10 cm plates of indicated cell lines were rinsed once with warm PBS and incubated in serum/dye-free RPMI with indicated compounds or vehicle for 3 h at 37° C. Cells were washed once ice-cold PBS and snap frozen.
Cells were rinsed once with ice-cold PBS, and lysed by sonication in Triton IP buffer. Lysates were clarified by centrifugation at 16,000×g for 10 min. Samples were normalized to 1 mg ml^−1 and boiled following the addition of sample buffer. For FLAG- or HA-immunoprecipitations, FLAG or HA resins (30 μL, 50:50 slurry) were added to the pre-cleared lysates and incubated with rotation for 3 hours at 4° C. Following immunoprecipitation, the beads were washed once with IP buffer followed by 3 times with IP buffer containing 500 mM NaCl. Loading buffer (40 μL) was added to the immunoprecipitated proteins which were subsequently denatured by boiling. Proteins were resolved by SDS-PAGE, analyzed by immunoblotting and relative band intensities were quantified using ImageJ software.
Next it was asked whether BPK-26 and BPK-29 inhibited NR0B1 protein interactions in cells using two complementary systems. […] In both cell systems, BPK-26 and BPK-29, but not control compounds, blocked the interactions of FLAG-tagged RMB45 or SNW1 with endogenous NR0B1 (FIG. 6C and FIG. 12E-F).

C274 of NR0B1 = target: T2, C274 of NR0B1 (Homo sapiens, UniProt P51843); assay: Site of labeling by LC-MS/MS of FLAG-NR0B1 tryptic peptides; assay type: binding; conditions: BPK-26 100 μM, 3 h in lysate, BPK-29 50 μM, 3 h in HEK293T cells
T2 construct: expressed in transfected cells; host or cells: HEK-293T, transient, pRK5-based vector
Method: FIG. 11A-FIG. 11F illustrate a covalent ligand targeting Cys274 disrupts NR0B1 protein complexes. […] See also FIG. 5C. […] Top: Structures of screening hit BPK-28 and synthesized derivatives. […] The In vitro-binding assay was performed as described in FIG. 5B using compounds at a concentration of 50 μM. Bottom: Data represent mean values±SD normalized to DMSO control. n=4/group. […] Top: Compounds were tested as described in FIG. 5B. Bottom: Graph of concentration-dependent inhibition of NR0B1-SNW1 interactions by the indicated compounds. Percent binding was normalized to vehicle (DMSO). Data represent mean values±SD (n=2-5/group). FIG. 11D and FIG. 11E show NR0B1 ligands BPK-26 (D) and BPK-29 (E) covalently modify C274 in NR0B1. Lysate generate from HEK293T cell expressing FLAG-NR0B1 was treated with DMSO or BPK-26 (100 μM, 3 h, D). […] FLAG-immunoprecipitates were prepared from each lysate and subjected to proteolytic digestion, whereupon tryptic peptides harboring C274 were analyzed by LC-MS/MS. […] Immunoprecipitates were analyzed by in-gel fluorescence-scanning to assess BPK-29yne labeling or by immunoblot for FLAG-NR0B1. […] In a modified in vitro binding assay shown in FIG. 5B, HEK293T cells expressing HA-NR0B1-WT or an HA-NR0B1-C274V mutant were treated with DMSO or BPK-26 (20 μM, 3 h), after which lysates were and interaction with FLAG-SNW1 assessed. […]

| Compound | blockade of interactions of FLAG-tagged RBM45 or SNW1 with endogenous NR0B1 [1] | inhibition of NR0B1 interaction with FLAG-RBM45 or FLAG-SNW1 [1] | covalent modification of C274 of NR0B1 (C274 of NR0B1) | relative potency for blockade of NR0B1-protein interactions ([1]; in cells) |
| --- | --- | --- | --- | --- |
| O=C(CCl)N(Cc1cccc(Cl)c1F)c1ccc(Cl)nc1 [BPK-26, 2-chloro-N-(3-chloro-2-fluorobenzyl)-N-(6-chloropyridin-3-yl)acetamide] | blocked | inhibit | covalently modified C274 of NR0B1 | – |
| O=C(c1ccc(N2CCOCC2)cc1)N1CCCC(N(Cc2ccccc2)C(=O)CCl)CC1 (stereo not shown) [BPK-29, N-benzyl-2-chloro-N-(1-(4-morpholinobenzoyl)azepan-4-yl)acetamide] | blocked | inhibit | covalently modified C274 of NR0B1 | better potency than BPK-26 |
